Patent US10100079B2, “Progesterone-cationic lipid hybrid as anticancer agent and the process of synthesis thereof” (Council of Scientific & Industrial Research, priority 2016, dated 2018)
Read-outs that look alike come from different tables or passages of the source.

Assays:
COS-1 = test: MTT cytotoxicity assay, COS-1; type: cell-based; conditions: Chlorocebus aethiops, read-out: IC50 COS-1
Experimental: (§1) All cells were grown into mycoplasma free condition. […] All cells were grown up to 75-85% confluency after which cells were trypsinized, counted and seeded, in 96-well plates for cell viability studies, 6-well plates for apoptosis studies, 60 mm dish for cell cycle studies and in 25 cm^2 or 75 cm^2 tissue culture flasks for Western blot studies. The primary stock of the cationic progesterone molecules were made in cell culture grade DMSO and from that secondary stock was prepared by serial dilution with cell culture grade DMSO. The final working concentrations were prepared by diluting the secondary stock in cell culture media keeping the DMSO concentration in working solution below 0.2% with respect to cell culture medium. […] For this assay, 12-18 h before treatment cells were plated in 96-well plate at 5000 cells/well density. […] After completion of the treatment, 10 μL of MTT solution (5 mg/mL) was added in each well and incubated for 4 h. Then the media was removed carefully, and the reduced MTT was dissolved in 1:1 (v/v) DMSO/Methanol and absorbance was measured using multimode reader (Synergy H1, BioTek). Results were represented as percentage of viability={[A550(treated cells)−background]/[A550(untreated cells)−background]}×100. The result was summarized and provided as IC50 table in Table 1.

NIH-3T3 = test: MTT cytotoxicity assay, NIH-3T3; type: cell-based, murine; conditions: Mus musculus, read-out: IC50 NIH-3T3
Experimental: as §1

[1] = test system: non-cancer cells CHO, COS-1 and NIH-3T3; test: MTT viability, tested non-cancer cells (combination treatment study, FIG. 1B); type: cell-based; conditions: 48 h; for toxicity in non-cancer cells: 10 μM (1+10C: 10 μM+10 μM)
Experimental: FIG. 1B: The viability studies of non-cancer cells CHO, COS-1 and NIIH-3T3 after 48 h of continuous treatment with compound 1 (10 μM), 10C [cationic lipid control molecule not containing progesterone moiety]
(§2) Cytotoxicity assay of the different compounds were carried out by using 3-(4,5-dimethylthiazol-2-yl)-2,5-diphenyltetrazolium bromide (MTT). For this assay, 12-18 h before treatment cells were plated in 96-well plate at 5000 cells/well density. After incubation cells were treated continuously for 48 h with respective compounds at different concentration (2.5 μM-40 μM). After completion of the treatment, 10 μL of MTT solution (5 mg/mL) was added in each well and incubated for 4 h. Then the media was removed carefully, and the reduced MTT was dissolved in 1:1 (v/v) DMSO/Methanol and absorbance was measured using multimode reader (Synergy H1, BioTek). Results were represented as percentage of viability={[A550(treated cells)−background]/[A550(untreated cells)−background]}×100. The result was summarized and provided as IC50 table in Table 1.
(§3) For combination treatment effect, cells were plated in 96 well plates at 5000 cells/well. […] Following 48 h of treatment cell viability was measured following above mentioned MTT study.

[2] = test system: chick embryo vascularization; test: Chick embryo angiogenesis (CEA) assay; type: in vivo, chicken; conditions: 20 μL, 5 μM, 4 h
Experimental: FIG. 7B: In vivo chick embryo angiogenesis (CEA) assay. Vascular sprouting was imaged following 0 h (left panel) and 4 h (right panel) treatment with DMSO, 1 (20 μL, 5 μM) and 6c (20 μL, 5 μM). Damaged vessel is indicated by black arrow.
To measure the anti-angiogenic property chick embryo angiogenesis study was carried out. For this study, fertile chicken eggs were incubated at 37° C. humidified incubator. After four day of incubation, the […] of the eggs were cautiously removed using forceps. After that, the egg yolks were carefully treated with DMSO (20 μL; 0.1% DMSO in IX PBS), compound 1 (20 μL; 5 μM), and 6c (20 μL; 5 μM) for 4 h. Images were captured at 0 and 4 h of incubation with a stereomicroscope (Leica). Different angiogenic parameters were quantified using Angioquant software.

B16F10 = test: MTT cytotoxicity assay, B16F10; type: cell-based, murine
Experimental: as §1

CHO = test: MTT cytotoxicity assay, CHO; type: cell-based, Chinese hamster; conditions: Cricetulus griseus, read-out: IC50 CHO
Experimental: as §1

B16F10 (PgR-negative) = test: Cell cycle assay by flow cytometry (PI), B16F10; type: cell-based, murine; conditions: B16F10, 10 μM, 24 h
Experimental: (§4) To measure the cellular DNA content, cell cycle assay was carried out. In this assay, first cells were synchronized at early S-phase by double thymidine blocking. When cell confluency was reached around 25-30% in 60 mm dish, cells were treated with 2 mM thymidine, diluted in 10% FBS containing DMEM, for 18 h to block cells at early S-phase. To release the blocking, media was discarded and washed with 1×PBS. Then the cells were incubated with fresh cell culture media containing 10% FBS for 9 h. After releasing, second blocking was done with 2 mM thymidine containing media for 17 h. After second blocking cells were released by discarding the thymidine supplemented media and kept in fresh media. All the respective treatments for cell cycle study were done after 2 h of second release.
(§5) S-phase synchronized cells were either kept untreated or treated with compound 1 (10 μM) and 6c (10 μM) for 24 h. Cells from different treatment groups were harvested, washed with 1×PBS, and fixed with 70% ethanol and kept at −20° C. for overnight. Then the ethanol was removed and washed with 1×PBS. […] After incubation cells were collected by centrifugation, washed with 1×PBS, re-suspended in 500 μL 1×PBS, and data was recorded using flow cytometer (FACS Canto II, Becton-Dickinson, San Jose, Calif., USA) and data were analyzed with FACS Diva software. […]

T47D (PgR-positive) = test: Cell cycle assay by flow cytometry (PI), T47D; type: cell-based, human; conditions: 10 μM, 24 h
Experimental: as §4, §5

T47D = test: MTT cytotoxicity assay, T47D; type: cell-based; conditions: Homo sapiens, read-out: IC50 T47D
Experimental: as §1

[3] = test system: cancer cells T47D, OVCAR-3, MDA-MB-231, MCF-7 and B16F10; test: MTT viability, all tested cancer cells (combination treatment study, FIG. 1A); type: cell-based; conditions: 48 h; for toxicity in cancer cells: 10 μM (1+10C: 10 μM+10 μM)
Experimental: FIG. 1A: The viability studies of cancer cells T47D, OVCAR-3, MDA-MB-231, MCF-7 and B16F10 after 48 h of continuous treatment with compound 1 (10 μM), 10C [cationic lipid control molecule not containing progesterone moiety]
as §2, §3

MDA-MB-231 = test: MTT cytotoxicity assay, MDA-MB-231; type: cell-based, human
Experimental: as §1

**Q.** Which IC50 (COS-1; COS-1, MTT, 48 h continuous treatment, non-cancer cell) does the source give for `CC(=O)[C@H]1CC[C@H]2[C@@H]3CCC4=CC(=O)CC[C@]4(C)[C@H]3CC[C@]12C` [Compound 1, Progesterone] here?
**A.** > 20 µM

**Q.** And the IC50 (NIH-3T3; NIH3T3, MTT, 48 h continuous treatment, non-cancer cell)?
**A.** > 20 µM

**Q.** And the “toxicity in non-cancer cells” value [1]?
**A.** did not impart any significant toxicity

**Q.** What about the “effect on blood vessels / vascularization network” value [2] of the same molecule?
**A.** either no effect or little increase in the vascularization network

**Q.** And the IC50 (B16F10; Mus musculus, B16-F10, MTT, 48 h continuous treatment, read-out: IC50 B16F10)?
**A.** > 20 µM

**Q.** What about the IC50 (CHO; MTT, 48 h continuous treatment, non-cancer cell) of the same molecule?
**A.** > 20 µM

**Q.** What about the “total cell population in G2/M phase” value (B16F10 (PgR-negative)) of the same molecule?
**A.** 19%

**Q.** What about the “total cell population in G2/M phase” value (T47D (PgR-positive)) of the same molecule?
**A.** 10%

**Q.** What about the IC50 (T47D; MTT, 48 h continuous treatment) of the same molecule?
**A.** > 20 µM

**Q.** And the “toxicity in cancer cells” value [3]?
**A.** did not impart any significant toxicity

**Q.** What about the IC50 (MDA-MB-231; Homo sapiens, MDA-MB-231, MTT, 48 h continuous treatment, read-out: IC50 MDA-MB-231) of the same molecule?
**A.** > 20 µM

**Q.** `CCCCCCCCCC[N+](C)(CCCCCCCCCC)CCNC(=O)CCC(=O)O[C@@H](C)[C@H]1CCC2C3CCC4=CC(=O)CC[C@]4(C)C3CC[C@@]21C` (stereo partly drawn) [Compound 6c, N-decyl-N-(2-(4-((1S)-1-((10R,13S,17S)-10,13-dimethyl-3-oxo-2,3,6,7,8,9,10,11,12,13,14, 15,16,17-tetradecahydro-1H-cyclopenta[a]phenanthren-17-yl)ethoxy)-4-oxobutanamido)ethyl)-N-methyldecan-1-aminium chloride] was tested. Which IC50 (COS-1; COS-1, 48 h) did it give?
**A.** > 20 µM

**Q.** What about the IC50 (NIH-3T3; NIH3T3, 48 h) of the same molecule?
**A.** > 20 µM

**Q.** What about the “toxicity in non-cancer cells” value [1] of the same molecule?
**A.** not in non-cancerous cell

**Q.** And the “toxicity towards tested non-cancer cells” value ([1]; 2.5 μM-40 μM)?
**A.** largely non-toxic

**Q.** And the “effect on blood vessels / vascularization network” value [2]?
**A.** blood vessels were either significantly damaged or new blood vessel formation was delayed

**Q.** What about the IC50 (B16F10; Mus musculus, B16-F10, 48 h, read-out: IC50 B16F10, MTT, 48 h continuous treatment) of the same molecule?
**A.** 3.63 ± 0.16 µM

**Q.** And the IC50 (B16F10; read-out: IC50 B16F10, MTT, 48 h continuous treatment)?
**A.** 6.67 ± 0.27 µM

**Q.** What about the IC50 (CHO; 48 h) of the same molecule?
**A.** 17.3 ± 0.29 µM

**Q.** And the “total cell population in G2/M phase” value (B16F10 (PgR-negative))?
**A.** 33%

**Q.** What about the “total cell population in G2/M phase” value (T47D (PgR-positive)) of the same molecule?
**A.** 38%

**Q.** And the IC50 (T47D; 48 h)?
**A.** 4.32 ± 0.57 µM

**Q.** And the “toxicity in cancer cells” value [3]?
**A.** significant toxicity only in cancer cells

**Q.** What about the “cell killing in all tested cancer cells” value ([3]; 2.5 μM-40 μM) of the same molecule?
**A.** significant amount of cell killing

**Q.** What about the IC50 (MDA-MB-231; Homo sapiens, MDA-MB-231, 48 h, read-out: IC50 MDA-MB-231, MTT, 48 h continuous treatment) of the same molecule?
**A.** 6.67 ± 0.27 µM

**Q.** What about the IC50 (MDA-MB-231; read-out: IC50 MDA-MB-231, MTT, 48 h continuous treatment) of the same molecule?
**A.** 3.63 ± 0.16 µM
